{"source": "patent US12350296B2", "about": "“Liquid propolis extract, its formulation and use thereof” (Apiotix Technologies D.O.O., priority 2019, dated 2025)", "origin": "cited, not measured here", "system": "subclinical mastitis", "conditions": "for healing (cure) of cases: subclinical mastitis caused by S. uberis", "note": "Read-outs that look alike come from different tables or passages of the source."}
{"compound": "CC[C@@H]1CCN[C@H](C(=O)N[C@@H]([C@H]2O[C@H](SC)[C@H](O)[C@@H](O)[C@H]2O)[C@H](C)Cl)C1", "note": "[pirlimycin]", "values": [{"measurement": "healing (cure) of cases", "setting": "therapy for 5 days", "value": 68.8, "unit": "%"}, {"measurement": "healing (cure) of cases", "setting": "therapy for 8 days", "value": 80, "unit": "%"}, {"measurement": "healing (cure) of cases", "setting": "two-day therapy", "value": 58.1, "unit": "%"}]}
{"compound": "CO/N=C(\\C(=O)N[C@@H]1C(=O)N2C(C(=O)O)=C(CSC(=O)c3ccco3)CS[C@H]12)c1csc(N)n1", "note": "[ceftiofur]", "values": [{"measurement": "bacteriological cure", "setting": "daily i.mam. application during 8 days", "value": 66, "unit": "%"}, {"measurement": "bacteriological cure", "setting": "i.mam. application, after 5 days", "value": 54, "unit": "%"}]}
